Source: US20160244405A1, “COMPOSITIONS AND METHODS FOR THE TREATMENT OF HYPERGLYCEMIA AND METABOLIC SYNDROME” (priority 2015, published 2016)
Values after ≈ are worked out from the molar mass of the structure shown. Where two headings read alike, the source gives them in different places.

Assay: Water solubility by adding distilled water in portions until a clear solution
Assay type: physicochemical
Details: thermodynamic from solid
Description: The Solubility of the Compound of amino(3,3-dimethylguanidino)methaniminium (S)-2-((5Z,8Z,11Z,14Z,17Z)-icosa-5,8,11,14,17-pentaenamido)-4-methylpentanoate, Example-1 in Water was Compared with that of Eicosapentaenoic Acid (EPA) Measurement of the water solubility of the test compound was accomplished by using methods well known to those skilled in the art. Specifically, to a weighed amount of the test compounds of Example-1 and EPA were taken in separate vials; distilled water was added in small portions until a clear solution was obtained. The water solubility is calculated by dividing the weight of salt, in mg, by the volume of the solution, in mL. The water solubility of the compounds of example-1 compared to EPA alone were as follows: […]

Row | solubility (distilled water, weight of salt in mg divided by volume of solution in mL, read-out: water solubility) [mg/mL] | SMILES | solubility (water) [mg/mL]
1 |  | CC/C=C\C/C=C\C/C=C\C/C=C\C/C=C\CCCC(=O)N[C@@H](CC(C)C)C(=O)O [Example-1, amino(3,3-dimethylguanidino)methaniminium (S)-2-((5Z,8Z,11Z,14Z,17Z)-icosa-5,8,11,14,17-pentaenamido)-4-methylpentanoate] | 118 (≈ 284 mM)
2 | < 0.3 | CC/C=C\C/C=C\C/C=C\C/C=C\C/C=C\CCCC(=O)O [EPA, eicosapentaenoic acid] | 
